Measurements as given in PMC3688948, “Distinctive G Protein-Dependent Signaling by Protease-Activated Receptor 2 (PAR2) in Smooth Muscle: Feedback Inhibition of RhoA by cAMP-Independent PKA” (PLoS ONE, 2013).
Read-outs that look alike come from different tables or passages of the source. Peptide text beside a SMILES is read from it. * marks the point of attachment. Myristoyl = CCCCCCCCCCCCCC(=O)*; Cbz = O=C(OCc1ccccc1)*

How the values were obtained:
[1] = system: dispersed gastric smooth muscle cells; conditions: for contraction (decrease in cell length), comparator agonists: other contractile agonists, concentration not given; for effect of inhibitor on sustained (10 min) contraction by PAR2-AP: inhibitor 10 min (U73122 10 µM, ML-9 10 µM, bisindolylmaleimide 1 µM, Y27632 1 µM), then PAR2-AP 1 µM 10 min
[2] = system: Rho kinase; experiment: Rho kinase activity (immunokinase assay), PAR2-AP-stimulated or basal; format: cell-based, rabbit; conditions: for basal Rho kinase activity with inhibitor alone / effect of inhibitor on PAR2-AP-induced Rho kinase activity: IKK IV 10 µM; for basal Rho kinase activity with inhibitor alone: MG-132 10 µM or myristoylated PKI 1 µM alone, basal 3125±502 cpm/mg protein, n = four; for effect of inhibitor on PAR2-AP-induced Rho kinase activity: MG-132 10 µM or myristoylated PKI 1 µM, PAR2-AP 1 µM 10 min, freshly dispersed cells, P<0.01
[3] = molecular target: T1, PAR2 (Oryctolagus cuniculus, UniProt G1SHU9); format: cell-based, rabbit
T1 construct: Freshly dispersed muscle cells labelled with myo-2-[^3H]inositol were incubated with different concentrations of PAR2-AP for 60 s; endogenous in cells; host or cells: freshly dispersed and primary cultured rabbit gastric smooth muscle cells
T1 sequence (G1SHU9 25-397): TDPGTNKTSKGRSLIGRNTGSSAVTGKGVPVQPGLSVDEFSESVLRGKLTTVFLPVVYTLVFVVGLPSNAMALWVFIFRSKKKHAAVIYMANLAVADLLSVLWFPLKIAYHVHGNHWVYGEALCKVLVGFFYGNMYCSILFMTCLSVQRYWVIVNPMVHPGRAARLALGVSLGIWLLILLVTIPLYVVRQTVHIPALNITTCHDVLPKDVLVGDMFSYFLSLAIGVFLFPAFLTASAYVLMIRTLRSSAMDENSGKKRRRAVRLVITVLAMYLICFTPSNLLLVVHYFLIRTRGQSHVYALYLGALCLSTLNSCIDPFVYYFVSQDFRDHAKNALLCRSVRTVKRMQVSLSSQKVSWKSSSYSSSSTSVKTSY

[4] = system: adenylyl cyclase; experiment: Forskolin-stimulated cAMP formation (adenylyl cyclase activity); format: cell-based, rabbit; conditions: forskolin 10 µM, 10 min, 100 µM isobutyl methyl xanthine; basal 2.8±0.5 pmol/mg protein; n = 4
Procedure: Adenylyl cyclase activity was measured by the formation of cAMP in response to agonists by radioimmunoassay using [^125I]cAMP [18], [21]. One ml (3×10^6 cells/ml) of cell suspension was treated for 60 s with forskolin (10 µM) in the presence of 100 µM isobutylmethyl xanthine, either alone or in combination with PAR2-AP (1 µM). The reaction was terminated with cold 6% trichloroacetic acid (v/v) and vortexed vigorously. After centrifugation, the supernatants were extracted three times with water-saturated diethyl ether to remove the tricholoroacetic acid and the samples were then lyophilized and frozen at –20°C. The samples were reconstituted for radioimmunoassay in 50 µl of 50 mM sodium acetate (pH 6.2) and acetylated with triethylamine/acetic anhydride (2∶1 v/v) for 30 min. […] The results are expressed as pmol of cAMP/mg protein.
Cyclic AMP formation was measured in freshly dispersed muscle cells in the presence of 100 µM isobutylmethylxanthine. Muscle cells were treated with PAR2-AP (1 µM) alone, forskolin (FSK, 10 µM) alone or forskolin plus PAR2-AP (1 µM) for 60 s and cAMP was measured by radioimmunoassay. In some experiments cells were treated with pertussis toxin (PTx, 200 ng/ml) for 60 min, and then treated with forskolin (10 µM) and PAR2-AP (1 µM) for 60 s. Results are expressed as pmol/mg protein.

[5] = molecular target: T1, PAR2; experiment: PAR2 expression (western blot); format: cell-based, rabbit; conditions: transfection with PAR2-specific siRNA for 48 h, cultured cells
[6] = system: NF-kB/PKA catalytic subunit complex; experiment: Association of PKA catalytic subunit with NF-kB (co-immunoprecipitation); format: cell-based, rabbit; conditions: cells transfected with PAR2-specific siRNA, PAR2-AP 10 min
[7] = molecular target: Protease-activated receptor 2 (PAR2) (rabbit (endogenous in gastric smooth muscle cells))
[8] = inhibitor 10 min (U73122 10 µM, ML-9 10 µM, bisindolylmaleimide 1 µM, Y27632 1 µM) or PTx 200 ng/ml 60 min, then PAR2-AP 1 µM 30 s

Molecule: NCCc1c[nH]c2ccc(O)cc12 [5-hydroxytryptamine]
- contraction (decrease in cell length), comparator agonists [1]: 30±4%

Molecule: NC(=O)Nc1sc(-c2ccc(F)cc2)cc1C(N)=O [IKK IV]
- basal Rho kinase activity with inhibitor alone ([2]; no effect): 3021±486 cpm/mg protein
- effect of inhibitor on PAR2-AP-induced Rho kinase activity [2]: significantly augmented

Molecule: CC(C)C[C@@H](C=O)NC(=O)[C@H](CC(C)C)NC(=O)[C@H](CC(C)C)NC(=O)OCc1ccccc1 [MG-132] (Cbz-Leu-Leu-Leu-aldehyde)
- basal Rho kinase activity with inhibitor alone ([2]; no effect): 2859±602 cpm/mg protein
- effect of inhibitor on PAR2-AP-induced Rho kinase activity [2]: significantly augmented

Molecule: O=S(=O)(c1cccc2c(Cl)cccc12)N1CCCNCC1 [ML-9]
- effect of inhibitor on initial (30 s) contraction by PAR2-AP [1, 8]: abolished
- effect of inhibitor on sustained (10 min) contraction by PAR2-AP [1]: not

Molecule: COc1ccc2c(c1)CC[C@@H]1[C@@H]2CC[C@]2(C)[C@@H](NCCCCCCN3C(=O)C=CC3=O)CC[C@@H]12 [U73122]
- effect of inhibitor on initial (30 s) contraction by PAR2-AP [1, 8]: abolished
- effect of inhibitor on sustained (10 min) contraction by PAR2-AP [1]: not
- inhibition of PAR2-AP-stimulated PI hydrolysis by U73122 ([3]; U73122 10 µM 10 min, then PAR2-AP 1 µM 60 s, freshly dispersed cells): abolished
- PI hydrolysis with inhibitor alone ([3]; no PAR2-AP, U73122 10 µM 10 min or PTx 200 ng/ml 60 min, basal 520±66 cpm/mg protein, no effect on basal): 485±86 cpm/mg protein

Molecule: C[C@@H](N)[C@H]1CC[C@H](C(=O)Nc2ccncc2)CC1 [Y27632]
- effect of inhibitor on initial (30 s) contraction by PAR2-AP [1, 8]: not affected
- effect of inhibitor on sustained (10 min) contraction by PAR2-AP [1]: preferentially blocked
- basal Rho kinase activity with Y27632 alone ([2]; Y27632 1 µM alone, basal 3363±587 cpm/mg protein, no effect): 3025±425 cpm/mg protein

Molecule: CC(=O)OCC[N+](C)(C)C [acetylcholine]
- contraction (decrease in cell length), comparator agonists [1]: 31±3%

Molecule: C=C[C@@]1(C)CC(=O)[C@]2(O)[C@@]3(C)[C@@H](O)CCC(C)(C)[C@@H]3[C@H](O)[C@H](OC(C)=O)[C@@]2(C)O1 [forskolin]
- cAMP formation above basal level [4]: 22.1±1.86 pmol/mg protein

Molecule: PAR2 siRNA: PAR-2 (ID#s453494): sense: 5′ CCUCCUCUCUGUCAUCUGGTT 3′, antisense: 5′ CCAGAUGACAGAGAGGAGGTC3′ (chemistry not given here)
- inhibition of PAR2-AP-stimulated PI hydrolysis by PAR2 siRNA ([3]; cultured cells transfected with PAR2 siRNA, PAR2-AP 1 µM 60 s, p<0.001, n = four): 83±6%
- expression of PAR2 [5]: greatly suppressed the expression of PAR2
- effect of PAR2 siRNA on PAR2-AP-induced NF-kB and PKA catalytic subunit dissociation [6]: blocked

Molecule: bisindolylmaleimide
- effect of inhibitor on initial (30 s) contraction by PAR2-AP [1]: not affected
- effect of inhibitor on sustained (10 min) contraction by PAR2-AP [1]: not

Molecule: cholecystokinin
- contraction (decrease in cell length), comparator agonists [1]: 29±2%

Molecule: myristoylated PKI: membrane-permeable specific PKA inhibitory peptide, myristoylated PKI 14-22 amide (Myristoyl-SGRTGRRNA-NH2; SMILES CCCCCCCCCCCCCC(=O)N[C@@H](CO)C(=O)NCC(=O)N[C@@H](CCCNC(=N)N)C(=O)N[C@H](C(=O)NCC(=O)N[C@@H](CCCNC(=N)N)C(=O)N[C@@H](CCCNC(=N)N)C(=O)N[C@@H](CC(N)=O)C(=O)N[C@@H](C)C(N)=O)[C@@H](C)O; UniProt P61925 14-22, looked up, fragment)
- basal Rho kinase activity with inhibitor alone ([2]; no effect): 3254±574 cpm/mg protein
- effect of inhibitor on PAR2-AP-induced Rho kinase activity [2]: significantly augmented

Molecule: trypsin
- PI hydrolysis above basal levels, trypsin ([3]; trypsin 1 µM, basal 439±68 cpm/mg protein): 2653±302 cpm/mg protein

Molecule: SLIGRL [PAR2-activating peptide (PAR2-AP, SLIGRL)]
- stimulation of PI hydrolysis in freshly dispersed rabbit gastric smooth muscle cells, concentration-dependent (EC50) [7]: 2 nM
